Experimental data published in PubChem BioAssay AID2060909 (Molecular Pharmacology Branch, DTP, NCI, 2025).

System: 362531-283-R-J2-PDC complex spheroid viability
Assay: Anticancer human tumor 362531-283-R-J2-PDC patient-derived colon adenocarcinoma cell line growth inhibition [RAS]
Conditions: for IC50: curve of first compound; for viability, T/C: stronger effect = lower value
Source text: RAS pathway inhibitors in Combinations in Complex Spheroids
A high-throughput screen of multi-cell type tumor spheroids was designed to identify active combinations of RAS pathway inhibitors and targeted small molecules. Complex spheroids include a stromal component modeled by human endothelial cells (HUVEC) and fibroblasts modeled by human mesenchymal stem cells (MSCs). The concentration ranges selected for each drug and investigational agent were based upon clinically achievable concentrations if the clinical Cmax of the agent was known.
Compounds. The drugs and investigational agents: abemaciclib (NSC768073), cobimetinib (NSC768068), divarasib (GDC6063, NSC841802), docetaxel (NSC628503), GDC-1971 (RLY-1971, NSC841576), gemcitabine (NSC613327), inavolisib (NSC800729), ipatasertib (NSC767898), KB-0742 (NSC834161), MRTX-1133 (NSC836407), osimertinib (NSC779217), RMC-4630 (NSC839698), RMC-6236 (NSC851965), RMC-6291 (NSC852671), Ro-3306 (NSC812927), sapanisertib (NSC764658), SN-38 (NSC673596), staurosporine (NSC755774), SY5609 (NSC837396), and tovorafenib (DAY101, NSC766906), were obtained from the National Cancer Institute (NCI) Developmental Therapeutics Program Chemical Repository. The FDA-approved anticancer drug set is available from the NCI Developmental Therapeutics Program. […] The stock solutions were prepared in dimethyl sulfoxide (DMSO, Sigma-Aldrich, St. Louis, MO, cat. D2650) at 800-fold the tested concentration and stored at -70 degrees C prior to their use. All drugs and investigational agents were tested over a range starting from a high concentration at or near the clinical Cmax and decreasing in half-log increments. If the clinical Cmax for an agent had not been determined, the highest concentration tested was 10 microM.
Cell Culture. All cells were maintained in an incubator at 37 degrees C and 5% CO2 with 95% humidity. The PDC lines were cultured according to standard operating procedures established by the NCI PDMR. All PDCs were thawed and cultured in Matrigel-coated flasks prepared with a working solution of 1X Ham's F-12 nutrient mix, without supplementation (Invitrogen, Waltham, MA, cat. 11765054), 100 U/mL penicillin-streptomycin (Invitrogen, cat. 15140122), and 2.5% Matrigel (Corning Inc., Corning, NY, cat. 354248) for the first three passages. The 362531-283-R-J2-PDC and 782815-120-R-J1-PDC lines were cultured in 6C/Colon 1B media, which includes advanced DMEM/F-12 (Thermo Fisher Scientific, cat. 12634028), 10 mM HEPES (Thermo Fisher Scientific, cat. 15630080), 1X GlutaMAX supplement (Thermo Fisher Scientific, cat. 35050061), 0.1 mg/mL primocin (InvivoGen, San Diego, CA, cat. ant-pm-2), 10% defined fetal bovine serum, heat inactivated (HyClone Laboratories Inc., Logan, UT, cat. SH30070.03HI), 50% L-WRN conditioned media (ATCC, cat. CRL-3276), 1.25 mM N-Acetyl-L-cysteine (Sigma-Aldrich, cat. A9165), 10 mM nicotinamide (Sigma-Aldrich, cat. N0636), 1X B-27 supplement (Thermo Fisher Scientific, cat. 17504044), 1X N-2 supplement (Thermo Fisher Scientific, cat. 17502048), 50 ng/mL human EGF (Thermo Fisher Scientific, cat. PHG0311), and 10 microM Y-27632 dihydrochloride (Tocris Bioscience, cat. 1254). The K12877-001-R-J1-PDC line was cultured in 6I media, which includes all 6C/Colon 1B media plus 10 ng/mL human FGF-10 (PeproTech, cat. 100-26), 1 ng/mL human FGF-2 (PeproTech, cat. 100-18B), 1 µM prostaglandin E2 (Tocris Bioscience, cat. 2296), […] hydrocortisone (Sigma-Aldrich, cat. H4001), and […] bovine insulin (Sigma-Aldrich, cat. I6634). The K86415-001-R-J1-PDC line was cultured in 6D media, which includes all 6C/Colon 1B media components minus the L-WRN conditioned media. The 485176-168-R4-J1-PDC was cultured in PANC media, which includes all 6C/Colon 1B media plus 100 ng/mL human FGF-10 (PeproTech, cat. 100-26), 500 nM SB-431542 (Selleckchem, cat. S1067), and 10 nM gastrin (Tocris Bioscience, cat. 3006). […]
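Note: spheroids exposed to the agents for 7 days before readout.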
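Throughout, for viability, T/C: luminescence viability as percent of DMSO vehicle control wells.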

`CCc1c2c(nc3ccc(O)cc13)-c1cc3c(c(=O)n1C2)COC(=O)[C@]3(O)CC` + CCn1c(-c2cccnc2C(C)OC)c2c3cc(ccc31)N1CCOC(CC(NC(=O)C(C(C)C)N(C)C(=O)C3(F)CCN(C(=O)C#CC(C)(C)N(C)C)CC3)C(=O)N3CCCC(N3)C(=O)OCC(C)(C)C2)C1 was tested, and the IC50 (second compound 0.000949 µM) was 58.1 nM, the IC50 (second compound 0.003 µM) was 32.9 nM and the IC50 (second compound 0.00949 µM) was 51.3 nM. For the same molecule, the IC50 (second compound 0.03 µM) was 60.5 nM, the IC50 (second compound 0.0949 µM) was 56.1 nM and the IC50 (second compound 0.3 µM) was 44.2 nM. The viability, T/C (second compound 0.000949 µM, first compound 0.000949 µM) was 96.5%, the viability, T/C (second compound 0.000949 µM, first compound 0.003 µM) was 91.6% and the viability, T/C (second compound 0.000949 µM, first compound 0.00949 µM) was 83%. For the same molecule, the viability, T/C (second compound 0.000949 µM, first compound 0.03 µM) was 73.6%, the viability, T/C (second compound 0.000949 µM, first compound 0.0949 µM) was 32.9% and the viability, T/C (second compound 0.000949 µM, first compound 0.3 µM) was 18%. The viability, T/C (second compound 0.003 µM, first compound 0.000949 µM) was 112%, the viability, T/C (second compound 0.003 µM, first compound 0.003 µM) was 91.6% and the viability, T/C (second compound 0.003 µM, first compound 0.00949 µM) was 82.5%. For the same molecule, the viability, T/C (second compound 0.003 µM, first compound 0.03 µM) was 45.9%, the viability, T/C (second compound 0.003 µM, first compound 0.0949 µM) was 34% and the viability, T/C (second compound 0.003 µM, first compound 0.3 µM) was 16.7%. It also gave a viability, T/C (second compound 0.00949 µM, first compound 0.000949 µM) of 101%, a viability, T/C (second compound 0.00949 µM, first compound 0.003 µM) of 99.2% and a viability, T/C (second compound 0.00949 µM, first compound 0.00949 µM) of 76.1%. For the same molecule, the viability, T/C (second compound 0.00949 µM, first compound 0.03 µM) was 65%, the viability, T/C (second compound 0.00949 µM, first compound 0.0949 µM) was 35.5% and the viability, T/C (second compound 0.00949 µM, first compound 0.3 µM) was 17.8%. For the same molecule, the viability, T/C (second compound 0.03 µM, first compound 0.000949 µM) was 103%, the viability, T/C (second compound 0.03 µM, first compound 0.003 µM) was 90.8% and the viability, T/C (second compound 0.03 µM, first compound 0.00949 µM) was 89%. For the same molecule, the viability, T/C (second compound 0.03 µM, first compound 0.03 µM) was 71.8%, the viability, T/C (second compound 0.03 µM, first compound 0.0949 µM) was 35.8% and the viability, T/C (second compound 0.03 µM, first compound 0.3 µM) was 15.7%. It also gave a viability, T/C (second compound 0.0949 µM, first compound 0.000949 µM) of 95.1%, a viability, T/C (second compound 0.0949 µM, first compound 0.003 µM) of 93.1% and a viability, T/C (second compound 0.0949 µM, first compound 0.00949 µM) of 84.8%. For the same molecule, the viability, T/C (second compound 0.0949 µM, first compound 0.03 µM) was 60.1%, the viability, T/C (second compound 0.0949 µM, first compound 0.0949 µM) was 40.9% and the viability, T/C (second compound 0.0949 µM, first compound 0.3 µM) was 16.4%. It also gave a viability, T/C (second compound 0.3 µM, first compound 0.000949 µM) of 90.3%, a viability, T/C (second compound 0.3 µM, first compound 0.003 µM) of 108% and a viability, T/C (second compound 0.3 µM, first compound 0.00949 µM) of 90.3%. It also gave a viability, T/C (second compound 0.3 µM, first compound 0.03 µM) of 57.6%, a viability, T/C (second compound 0.3 µM, first compound 0.0949 µM) of 32.5% and a viability, T/C (second compound 0.3 µM, first compound 0.3 µM) of 13.3%.

Molecule `CC(C)n1nc(-c2ccc3oc(N)nc3c2)c2c(N)ncnc21` + C#Cc1c(F)ccc2cc(O)cc(-c3ncc4c(N5CC6CCC(C5)N6)nc(OCC56CCCN5CC(F)C6)nc4c3F)c12 has an IC50 (second compound 0.0316 µM) greater than 100 nM, an IC50 (second compound 0.1 µM) greater than 100 nM and an IC50 (second compound 0.316 µM) of 20.5 nM. For the same molecule, the IC50 (second compound 1 µM) was 13.1 nM, the IC50 (second compound 3.16 µM) was 3.09 nM and the IC50 (second compound 10 µM) was less than 0.316 nM. The viability, T/C (second compound 0.0316 µM, first compound 0.000316 µM) was 96%, the viability, T/C (second compound 0.0316 µM, first compound 0.001 µM) was 87.6% and the viability, T/C (second compound 0.0316 µM, first compound 0.00316 µM) was 91.9%. The viability, T/C (second compound 0.0316 µM, first compound 0.01 µM) was 78.7%, the viability, T/C (second compound 0.0316 µM, first compound 0.0316 µM) was 50.2% and the viability, T/C (second compound 0.0316 µM, first compound 0.1 µM) was 53.2%. It also gave a viability, T/C (second compound 0.1 µM, first compound 0.000316 µM) of 104%, a viability, T/C (second compound 0.1 µM, first compound 0.001 µM) of 98% and a viability, T/C (second compound 0.1 µM, first compound 0.00316 µM) of 86.3%. The viability, T/C (second compound 0.1 µM, first compound 0.01 µM) was 68%, the viability, T/C (second compound 0.1 µM, first compound 0.0316 µM) was 66.6% and the viability, T/C (second compound 0.1 µM, first compound 0.1 µM) was 48.7%. For the same molecule, the viability, T/C (second compound 0.316 µM, first compound 0.000316 µM) was 91.9%, the viability, T/C (second compound 0.316 µM, first compound 0.001 µM) was 94.5% and the viability, T/C (second compound 0.316 µM, first compound 0.00316 µM) was 85.6%. For the same molecule, the viability, T/C (second compound 0.316 µM, first compound 0.01 µM) was 62.5%, the viability, T/C (second compound 0.316 µM, first compound 0.0316 µM) was 41.1% and the viability, T/C (second compound 0.316 µM, first compound 0.1 µM) was 41.5%. For the same molecule, the viability, T/C (second compound 1 µM, first compound 0.000316 µM) was 80.4%, the viability, T/C (second compound 1 µM, first compound 0.001 µM) was 86.2% and the viability, T/C (second compound 1 µM, first compound 0.00316 µM) was 78.2%. It also gave a viability, T/C (second compound 1 µM, first compound 0.01 µM) of 51.9%, a viability, T/C (second compound 1 µM, first compound 0.0316 µM) of 45.9% and a viability, T/C (second compound 1 µM, first compound 0.1 µM) of 38.4%. The viability, T/C (second compound 3.16 µM, first compound 0.000316 µM) was 74.2%, the viability, T/C (second compound 3.16 µM, first compound 0.001 µM) was 55.2% and the viability, T/C (second compound 3.16 µM, first compound 0.00316 µM) was 57.4%. The viability, T/C (second compound 3.16 µM, first compound 0.01 µM) was 35.3%, the viability, T/C (second compound 3.16 µM, first compound 0.0316 µM) was 33.6% and the viability, T/C (second compound 3.16 µM, first compound 0.1 µM) was 26.1%. It also gave a viability, T/C (second compound 10 µM, first compound 0.000316 µM) of 42.9%, a viability, T/C (second compound 10 µM, first compound 0.001 µM) of 42.5% and a viability, T/C (second compound 10 µM, first compound 0.00316 µM) of 34%. The viability, T/C (second compound 10 µM, first compound 0.01 µM) was 25.5%, the viability, T/C (second compound 10 µM, first compound 0.0316 µM) was 20.1% and the viability, T/C (second compound 10 µM, first compound 0.1 µM) was 18.3%.
